Test results as given in patent US20040176361A1, “Fused heterocyclic compound and medicinal use thereof” (priority 2001, published 2004).
Where a name gives a salt, the structure may show the parent alone.

Tests used:
Recombinant human PARP = Recombinant human PARP (Homo sapiens, UniProt P09874); assay: PARP enzyme activity inhibitory action; details: PARP inhibitory activity IC50 (nM), 3H-NAD, activated DNA, 25° C. 15 min; average of 3 measurements
Sequence of Recombinant human PARP (P09874 whole entry): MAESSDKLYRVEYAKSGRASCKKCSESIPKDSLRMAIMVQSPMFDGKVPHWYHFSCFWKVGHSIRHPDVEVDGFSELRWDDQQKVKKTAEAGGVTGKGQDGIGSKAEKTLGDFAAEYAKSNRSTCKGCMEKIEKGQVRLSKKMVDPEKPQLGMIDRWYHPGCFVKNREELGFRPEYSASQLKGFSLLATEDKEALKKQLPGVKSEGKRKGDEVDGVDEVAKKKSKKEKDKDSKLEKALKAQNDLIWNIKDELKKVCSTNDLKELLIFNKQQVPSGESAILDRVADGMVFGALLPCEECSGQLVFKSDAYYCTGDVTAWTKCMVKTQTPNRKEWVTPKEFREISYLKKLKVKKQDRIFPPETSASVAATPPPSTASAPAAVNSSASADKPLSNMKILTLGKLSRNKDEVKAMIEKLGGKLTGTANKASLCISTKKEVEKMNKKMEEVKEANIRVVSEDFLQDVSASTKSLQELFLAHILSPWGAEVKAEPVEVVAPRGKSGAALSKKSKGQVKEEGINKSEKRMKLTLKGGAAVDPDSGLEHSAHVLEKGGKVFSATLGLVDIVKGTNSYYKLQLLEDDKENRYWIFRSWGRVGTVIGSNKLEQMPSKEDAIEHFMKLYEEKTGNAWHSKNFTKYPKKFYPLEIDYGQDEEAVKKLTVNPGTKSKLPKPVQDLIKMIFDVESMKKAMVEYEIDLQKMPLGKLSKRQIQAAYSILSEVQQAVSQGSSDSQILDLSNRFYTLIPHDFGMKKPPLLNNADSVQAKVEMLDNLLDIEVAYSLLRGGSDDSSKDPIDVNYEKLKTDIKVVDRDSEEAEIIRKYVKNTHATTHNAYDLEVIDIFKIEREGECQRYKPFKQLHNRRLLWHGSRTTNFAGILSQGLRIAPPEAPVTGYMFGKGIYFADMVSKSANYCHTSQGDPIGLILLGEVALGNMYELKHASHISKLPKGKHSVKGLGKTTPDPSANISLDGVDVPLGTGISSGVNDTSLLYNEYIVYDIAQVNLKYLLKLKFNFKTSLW
Description: After incubation at 25° C. for 15 min., the reaction was quenched with 20% trichloroacetic acid, and the resulting acid insoluble fraction was adsorbed on a GF/B filter. The filter was washed several times with 5% trichloroacetic acid, and the radiation dose on the filter was measured by liquid scintillation counter.

IC50 (Recombinant human PARP) [nM]	melting point	Compound
26		Cc1cccc2c(=O)[nH]c([C@@H]3CCN4CCCC4C3)cc12 (single isomer, unassigned) [Example 225, 5-methyl-3-(octahydroindolizin-7-yl)-2H-isoquinolin-1-one ¾ water adduct]
47		CN(C)CCCc1cc2ccccc2c(=O)[nH]1 [Example 85, 3-(3-(dimethylamino)propyl)-2H-isoquinolin-1-one]
42		Cc1cccc2c(=O)[nH]c(CCN3CCCC3)cc12 [Example 221, 5-methyl-3-[2-(pyrrolidin-1-yl)ethyl]-2H-isoquinolin-1-one]
44		Cc1cccc2c(=O)[nH]c(CCCN3CCCC3)nc12 [Example 176, 8-methyl-2-[3-(pyrrolidin-1-yl)propyl]-3H-quinazolin-4-one]
31		Cc1cccc2c(=O)[nH]c([C@@H]3CCN4CCCC4C3)cc12 (single isomer, unassigned) [Example 226, 5-methyl-3-(octahydroindolizin-7-yl)-2H-isoquinolin-1-one ½ water adduct]
5100		O=c1[nH]c(N2CCCCC2)cc2ccccc12 [Example Y-3010, reference compound]
40	220 to 222 °C	CN1CCC(c2cc3c(F)cccc3c(=O)[nH]2)CC1 [Example 106, 5-fluoro-3-(1-methylpiperidin-4-yl)-2H-isoquinolin-1-one]
68		Cc1cccc2c(=O)[nH]c(C3CCN(C)C3)cc12 (centres unmarked) [Example 248, 5-methyl-3-(1-methylpyrrolidin-3-yl)-2H-isoquinolin-1-one]
240		Cc1cccc2c(=O)[nH]c(N3CCN(C)CC3)nc12 [Pfizer, reference compound]
36		Cc1cccc2c(=O)[nH]c(N3CCN(C)C(CO)C3)cc12 (centres unmarked) [Example 153, 3-(3-hydroxymethyl-4-methylpiperazin-1-yl)-5-methyl-2H-isoquinolin-1-one]
36		Cc1cccc2c(=O)[nH]c(CCCN3CCCC3)cc12 [Example 222, 5-methyl-3-[3-(pyrrolidin-1-yl)propyl-1-yl]-2H-isoquinolin-1-one]
26		Cc1cccc2c(=O)[nH]c(CCN3CCCCC3)cc12 [Example 218, 5-methyl-3-[2-(piperidin-1-yl)ethyl]-2H-isoquinolin-1-one]
25		CN1CCN(c2cc3c(O)cccc3c(=O)[nH]2)CC1 [Example 19, 5-hydroxy-3-(4-methylpiperazin-1-yl)-2H-isoquinolin-1-one]
57	117 to 119 °C	O=c1[nH]c(CCCN2CCCC2)cc2ccccc12 [Example 213, 3-(3-(pyrrolidin-1-yl)propyl)-2H-isoquinolin-1-one]
44		Cc1cccc2c(=O)[nH]c(C3CCNCC3)cc12 [Example 93, 3-(piperidin-4-yl)-5-methyl-2H-isoquinolin-1-one hydrochloride]
39		Cc1cccc2c(=O)[nH]c(CCCN(C)C)nc12 [Example 145, 8-methyl-2-[3-(dimethylamino)propyl]-3H-quinazolin-4-one]
79		O=c1[nH]c(N2CCN(CCO)CC2)cc2ccccc12 [Example Y-3079, reference compound]
57	231 to 233 °C	CN(C)CCCCc1cc2c(O)cccc2c(=O)[nH]1.Cl [Example 188, 5-hydroxy-3-(4-dimethylaminobutyl)-2H-isoquinolin-1-one hydrochloride]
26	216 to 218 °C	CN1CCC(C2Cc3c(O)cccc3C(=O)N2)CC1 (centres unmarked) [Example 184, 5-hydroxy-3-(1-methylpiperidin-4-yl)-3,4-dihydro-2H-isoquinolin-1-one]
63		CN(C)C1CCN(c2cc3c(F)cccc3c(=O)[nH]2)CC1 [Example 28, 5-fluoro-3-(4-dimethylaminopiperidin-1-yl)-2H-isoquinolin-1-one]

IC50 (Recombinant human PARP) [nM]	melting point	Compound
58	230 to 231 °C (dec.)	Cc1cccc2c(=O)[nH]c(C3CN4CCC3CC4)nc12 (centres unmarked) [Example 138, 2-(1-azabicyclo[2.2.2]octan-3-yl)-8-methyl-3H-quinazolin-4-one]
61		O=c1[nH]c(C2CN3CCC2CC3)cc2ccccc12 (centres unmarked) [Example 86, 3-(1-azabicyclo[2.2.2]octan-3-yl)-2H-isoquinolin-1-one]
56		COc1cccc2c(=O)[nH]c(N3CCN(C)CC3)cc12 [Example 18, 5-methoxy-3-(4-methylpiperazin-1-yl)-2H-isoquinolin-1-one]
72		Cc1cccc2c(=O)[nH]c(CCCN3CCCCC3)cc12 [Example 228, 5-methyl-3-[3-(piperidin-1-yl)propyl]-2H-isoquinolin-1-one]
42		CN1CCN(c2cc3ccccc3c(=O)[nH]2)CC1CO (centres unmarked) [Example 4, 3-(3-hydroxymethyl-4-methylpiperazin-1-yl)-2H-isoquinolin-1-one]
63		O=c1[nH]c(CCN2CCCCC2)cc2ccccc12 [Example 219, 3-[2-(piperidin-1-yl)ethyl]-2H-isoquinolin-1-one]
77		O=c1[nH]c(CCN2CCCC2)cc2ccccc12 [Example 220, 3-[2-(pyrrolidin-1-yl)ethyl]-2H-isoquinolin-1-one]
	207 to 208 °C (dec.)	O=c1[nH]c(N2CCN(CCO)CC2)cc2c(F)cccc12 [Example 33, 5-fluoro-3-(4-(2-hydroxyethyl)piperazin-1-yl)-2H-isoquinolin-1-one]
	> 270 °C	Br.O=c1[nH]c(C2CCNCC2)c(-c2ccccc2)c2ccccc12
	187 to 188 °C	CN(C)C(=O)C1CCCN(c2cc3ccccc3c(=O)[nH]2)C1 (centres unmarked) [Example 202, 3-(3-(dimethylcarbamoyl)piperidin-1-yl)-2H-isoquinolin-1-one]
	> 230 °C (dec.)	O=c1[nH]c(N2CCNC(CO)C2)cc2c(Br)cccc12 (centres unmarked) [Example 198, 5-bromo-3-(3-hydroxymethylpiperazin-1-yl)-2H-isoquinolin-1-one]
	256 to 258 °C	CN(C)C1CCC(c2cc3ccccc3c(=O)[nH]2)CC1 (centres unmarked) [Example 147, 3-(4-(dimethylamino)cyclohexan-1-yl)-2H-isoquinolin-1-one]
	211 to 212 °C (dec.)	O=c1[nH]c(N2CCN(CCCCN3CCCCC3)CC2)cc2ccc(Br)cc12 [Example 76, 7-bromo-3-{4-[4-(piperidin-1-yl)butyl]piperazin-1-yl}-2H-isoquinolin-1-one]
	110 to 112 °C	COCOc1cccc2c(=O)[nH]c(CCCN(C)C)cc12 [Example 185, 5-methoxymethyloxy-3-(3-dimethylaminopropyl)-2H-isoquinolin-1-one]
	141 to 143 °C	CN(C)CC1CCCN(c2cc3ccccc3c(=O)[nH]2)C1 (centres unmarked) [Example 206, 3-(3-(dimethylaminomethyl)piperidin-1-yl)-2H-isoquinolin-1-one]
52		Cc1cccc2c(=O)[nH]c(CCN3CCCCC3)nc12 [Example 165, 8-methyl-2-(2-piperidinoethyl)-3H-quinazolin-4-one]
	171 to 172 °C (dec.)	CN1CCCN(c2cc3ccccc3c(=O)[nH]2)CC1 [Example 10, 3-(4-methylhomopiperazin-1-yl)-2H-isoquinolin-1-one]
	164 to 167 °C	CC1CN(c2cc3ccccc3c(=O)[nH]2)CCN1 (centres unmarked)
	236 to 238 °C	Cc1ccc2c(=O)[nH]c(C3CCN(C)CC3)cc2c1
